Results on four compounds are retold here after ChEMBL document CHEMBL1201862, “PubChem BioAssay data set” (2004).

Among the test systems are SF-268; OVCAR-4; SN12C; HCT-15; Malme-3M; SK-MEL-28; IGROV-1; HOP-62; HL-60; NCI-H23; MDA-N; NCI-H226; LOX IMVI; RXF 393; SW-620; HT-29; SK-MEL-5; CCRF-CEM.
Assay in all cases: NCI anticancer screen, dose series, 48 h

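Cultured in 96-well plates, cells were exposed to test compound for 48 hours across five concentrations. GI50 is the concentration that inhibits growth by half.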 Calls of active or inactive are those of the source. Cut-off read from the data, not from the text of the source: active = GI50 up to about 1.1 µM and inactive = higher. Bounds are passed on as bounds.

Turning to `Oc1nc(-c2cccc(F)c2)nc2ccccc12`, the GI50 was 27.1 µM (inactive) in the experiment with SF-268; 25 µM (inactive) in the experiment on OVCAR-4; > 49.9 µM (inactive) in the experiment with SN12C; > 100 µM in the experiment with HCT-15; 45.8 µM (inactive) in the experiment with Malme-3M; > 76.7 µM (inactive) in the experiment with SK-MEL-28. Besides, the GI50 was 57.1 µM (inactive) with IGROV-1; 22.5 µM (inactive) in the experiment with HOP-62; > 100 µM (inactive) in the experiment with HL-60; 32.5 µM (inactive) in the experiment on NCI-H23; > 62.8 µM (inactive) in the experiment on MDA-N; > 100 µM (inactive) in the experiment with NCI-H226. Besides, the GI50 was > 100 µM (inactive) in the experiment with LOX IMVI; 29.9 µM (inactive) in the experiment on RXF 393; > 87.7 µM (inactive) in the experiment on SW-620; > 100 µM (inactive) in the experiment with HT-29; > 67.1 µM (inactive) in the experiment with SK-MEL-5; > 21.3 µM (inactive) in the experiment on CCRF-CEM.
Consider `CC(C)(C)OC(=O)NCCCCC1NC(=O)[C@@H]2Cc3c([nH]c4ccccc34)C(c3ccccc3)N2C1=O` (some centres not stated), for which the GI50 with SF-268 was 14 µM (inactive); with OVCAR-4, 48.5 µM (inactive); in the experiment with SN12C it was 28.8 µM (inactive); in the experiment with HCT-15, 31.1 µM; in the experiment on Malme-3M, 31.1 µM (inactive); in the experiment with SK-MEL-28, 64.6 µM (inactive). Besides, the GI50 is 40.3 µM (inactive) in the experiment on IGROV-1; 30.3 µM (inactive) in the experiment on HOP-62; 21.5 µM (inactive) in the experiment on HL-60; 25.9 µM (inactive) with NCI-H23; 29.4 µM (inactive) in the experiment on MDA-N; 63.7 µM (inactive) with NCI-H226. Moreover, the GI50 with LOX IMVI was 19.9 µM (inactive); with RXF 393, 14.7 µM (inactive); in the experiment on SW-620, 54 µM (inactive); with HT-29, 25.6 µM (inactive); in the experiment with SK-MEL-5, 27.6 µM (inactive); in the experiment with CCRF-CEM, 26.7 µM (inactive).
In the case of `Cc1cc(-c2ccc(Cl)cc2)c(C#N)c(=S)n1C1OC(CO)C(O)C(O)C1O` (configuration not stated), the GI50 in the experiment with SF-268 was > 100 µM (inactive); in the experiment with OVCAR-4 it was > 100 µM (inactive); with SN12C, > 100 µM (inactive); in the experiment on HCT-15 it was > 100 µM; in the experiment with Malme-3M it was > 100 µM (inactive); in the experiment with SK-MEL-28 it was > 100 µM (inactive). Besides, the GI50 with IGROV-1, in the experiment with HOP-62, with HL-60, in the experiment on NCI-H23, in the experiment with MDA-N and with NCI-H226 was > 100 µM (inactive) throughout. Besides, the GI50 in the experiment with LOX IMVI, in the experiment with RXF 393, with SW-620, with HT-29, in the experiment with SK-MEL-5 and in the experiment with CCRF-CEM was > 100 µM (inactive) each time.
Consider `Oc1ccc(-c2nc(-c3cccnc3)c(-c3ccc(Cl)cc3)[nH]2)cc1O`, for which the GI50 in the experiment on SF-268 was 11.5 µM (inactive); with OVCAR-4 it was 16.1 µM (inactive); in the experiment with SN12C it was 13.2 µM (inactive); with HCT-15 it was 10.3 µM; with Malme-3M, 14 µM (inactive); in the experiment with SK-MEL-28, 17.5 µM (inactive). Moreover, the GI50 with IGROV-1 was 4.34 µM (inactive); in the experiment with HOP-62, 12.4 µM (inactive); in the experiment with HL-60, 5.05 µM (inactive); with NCI-H23, 11.7 µM (inactive); in the experiment with MDA-N, 11.7 µM (inactive); with NCI-H226, 16.2 µM (inactive). Further, the GI50 in the experiment with LOX IMVI is 9.82 µM (inactive); in the experiment on RXF 393, 12.7 µM (inactive); in the experiment with SW-620 it was 12.4 µM (inactive); in the experiment on HT-29, 14.6 µM (inactive); with SK-MEL-5 it was 13 µM (inactive); in the experiment with CCRF-CEM it was 4.48 µM (inactive).
